US8802094B2, “Method of reducing phosphate absorption by administering orally an IgY anti-intestinal sodium phosphate cotransporter type 2B antibody” (Wisconsin Alumni Research Foundation, priority 2006, dated 2014)

System: chicken intestinal alkaline phosphatase
Assay: Feeding anti-intestinal alkaline phosphatase egg antibody to chicks with active vitamin D: plasma phosphorous
Assay type: in vivo, chicken (Single Comb White Leghorn chicks)
Conditions: leghorn chicks, 10 days
Method: Single Comb White Leghorn laying hens were used for antibody production (3 hens per peptide antigen). Chicken intestinal alkaline phosphatase was purchased from Worthington. To prepare a vaccine for each hen 0.5 mg of chicken intestinal alkaline phosphatase was diluted to a final concentration of 0.5 ml PBS and mixed with 0.5 ml of Freund's complete adjuvant (first injection) or incomplete adjuvant (booster vaccination) to form a water in oil emulsification capable of holding a bead when dripped on ice water. The hen was then injected in four sites (each leg and each breast) with 0.25 ml of the vaccine emulsion intramuscularly. The booster injection in incomplete adjuvant occurred 7 days later.
In approximately 30 day lots, egg yolks from each hen were separated from whole eggs, mixed and lyophilized. Dried egg yolk powder containing the antibody was stored at room temperature until use in animal feeding studies.
The chicken model used in this study was described by Biehl and Baker, J. Nutr. 1997, 127:2054-2059 with the exception of antibodies to intestinal alkaline phosphatas. The negative control used in this study was a Pi deficient diet (Pi=inorganic phosphate which are largely mineral phosphates or phosphate from animal tissues and products such as milk and eggs), where the dietary phosphorous used was phytic phosphate. […]

## C=C1/C(=C\C=C2/CCC[C@]3(C)[C@@H]([C@H](C)CCCC(C)C)CC[C@@H]23)C[C@@H](O)C[C@@H]1O [Active vitamin D, 1α-hydroxyvitamin D3]
Pi deficient diet, antibody vs active vitamin D alone, vitamin D vs negative control
  effect on plasma phosphorous levels (in words): increased blood phosphorous levels in comparison to the negative control
Pi deficient phytic phosphorous diet, 1α-hydroxyvitamin D3 20 μg/kg diet alone or plus antibody 1 g/kg diet
  Plasma phosphate: 6.70 mg/dL
